# Key:
# microglia = experiment: PrestoBlue cell viability assay in microglia; type: cell-based, mouse; settings: tested dose range (up to 1 μM)
# [1] = tested on: LPS-induced neuroinflammatory response in the CNS; experiment: in vivo LPS mouse model of neuroinflammation; parameters: species or system mice
# Method: Administration of LPS intraperitoneally produces an acute neuroinflammatory response in the CNS including activation of microglia with production of inflammatory cytokines and chemokines. This model was used to test the effect of SRI-42127 on attenuating the neuroinflammatory response.
# Mice were injected with LPS intraperitoneally (i.p.) and then given SRI-42127 at 15 mg/kg (or vehicle) i.p. starting at 30 min post LPS injection and then three subsequent doses at 6 hours, 12 hours, and 18 hours. Brains were harvested at 24 hours for analysis. To determine the impact of SRI-42127 on HuR localization in microglia in the brain, sections from the hippocampus from 3 vehicle control and 3 SRI-42127 treated mice were examined. Tissue sections were stained with IBA1 and HuR. Quantification methods for HuR localization were similar to immunocytochemistry. Briefly, IBA1+ cells were identified and the outline of the cell was traced with Fiji software. Nuclei were localized by DAPI staining. Nuclear and cytoplasmic HuR immunofluorescence was quantitated to calculate a N/C ratio. In vehicle-treated animals, there was translocation of HuR into the cytoplasm as indicated by a merged yellow signal whereas in SRI-42127 treated mice, there was little to no merged signal. Next, 20-30 IBA1+ cells from sections in 3 control and 3 treated mice were assessed. A 2-fold increase in the N/C ratio of mice treated with SRI-42127 was observed, confirming the effect of the drug as shown in FIG. 18 (bottom).
# Next, the activation state of microglia was studied by measuring IBA1 intensity. Sections from the hippocampal region were stained with IBA1 and fluorescence intensity was measured using Fiji software from 5 sections of 3 mice per group. The reviewer was blinded to the identity of the samples.
# Finally, the impact of SRI-42127 on infiltration of neutrophils and monocytes into the brain after LPS administration i.p. was assessed. Microglial HuR knockout (KO) mice were also assessed. […]
# [2] = tested on: X1524 neurospheres, HuR mRNA targets; experiment: Illumina global RNA-sequencing of PDGx neurospheres; type: cell-based; settings: 3 uM, 12 hours, compared to control
# Method: (§1) Illumina global RNA-sequencing data were generated by utilizing PDGx neurospheres, which have been treated with a compound as described herein (e.g., SRI-42127, 3 uM) for 12 hours or with vehicle as the control. RNA was isolated by using TRIzol reagent (Invitrogen; Carlsbad, CA). The RNA samples were processed.
# (§2) RNA sequencing was performed on PDGx-derived glioma neurospheres representing the different molecular subtypes (classical, neuronal, and mesenchymal) after treatment with vehicle (control) or SRI-42127 (3 uM) for 12 hours. Analysis of direct HuR mRNA targets and their corresponding cell signaling pathways was performed. Table 9 illustrates the evaluated gene sets, representing direct HuR mRNA targets, and their corresponding cell signaling pathways.
# (§3) The analysis of direct HuR mRNA targets and their corresponding cell signaling pathways has been performed by using gene sets, which have been defined as the direct HuR targets following tumor neurosphere treatment with DHTS, an established modulator of HuR/mRNA interaction (Lal et al., Nucleic Acid Research, 2017). […] Data are represented as average+standard deviation (Aver+SD). The significance was evaluated by using Student t-test.
# (§4) The analysis was generated based on RNA-Seq data.
# [3] = tested on: X14P neurospheres, HuR mRNA targets; experiment: as above; type: cell-based; settings: 3 uM, 12 hours, compared to control
# Method: as §1, §2, §3, §4
# TRKA (NTRK1) = TRKA (NTRK1) (Homo sapiens, UniProt P04629); experiment: SelectScreen kinase profiling, ZLYTE; type: biochemical
# Method: (§5) The kinase inhibitory potentials of compounds as described herein (e.g., SRI-42127 and SRI-41664) were evaluated by ThermoFisher Scientific's SelectScreen™ Kinase Profiling Service. The following kinase inhibitory assays were utilized: ZLYTE (Madison, WI) for NTRK1, PIM1, and cMET kinases; LanthaScreen Binding (Madison, WI) for AAK1 kinase; and Adapta (Madison, WI) for IRAK1 kinase.
# PIM1 = PIM1 (Homo sapiens, UniProt P11309); experiment: SelectScreen kinase profiling, ZLYTE; type: biochemical
# Method: as §5
# cMET = cMET (Homo sapiens, UniProt P08581); experiment: SelectScreen kinase profiling, ZLYTE; type: biochemical
# Method: as §5
# [4] = 15 mg/kg i.p., all brain regions at 24 hours
# cMET, sequence (P08581 25-1390): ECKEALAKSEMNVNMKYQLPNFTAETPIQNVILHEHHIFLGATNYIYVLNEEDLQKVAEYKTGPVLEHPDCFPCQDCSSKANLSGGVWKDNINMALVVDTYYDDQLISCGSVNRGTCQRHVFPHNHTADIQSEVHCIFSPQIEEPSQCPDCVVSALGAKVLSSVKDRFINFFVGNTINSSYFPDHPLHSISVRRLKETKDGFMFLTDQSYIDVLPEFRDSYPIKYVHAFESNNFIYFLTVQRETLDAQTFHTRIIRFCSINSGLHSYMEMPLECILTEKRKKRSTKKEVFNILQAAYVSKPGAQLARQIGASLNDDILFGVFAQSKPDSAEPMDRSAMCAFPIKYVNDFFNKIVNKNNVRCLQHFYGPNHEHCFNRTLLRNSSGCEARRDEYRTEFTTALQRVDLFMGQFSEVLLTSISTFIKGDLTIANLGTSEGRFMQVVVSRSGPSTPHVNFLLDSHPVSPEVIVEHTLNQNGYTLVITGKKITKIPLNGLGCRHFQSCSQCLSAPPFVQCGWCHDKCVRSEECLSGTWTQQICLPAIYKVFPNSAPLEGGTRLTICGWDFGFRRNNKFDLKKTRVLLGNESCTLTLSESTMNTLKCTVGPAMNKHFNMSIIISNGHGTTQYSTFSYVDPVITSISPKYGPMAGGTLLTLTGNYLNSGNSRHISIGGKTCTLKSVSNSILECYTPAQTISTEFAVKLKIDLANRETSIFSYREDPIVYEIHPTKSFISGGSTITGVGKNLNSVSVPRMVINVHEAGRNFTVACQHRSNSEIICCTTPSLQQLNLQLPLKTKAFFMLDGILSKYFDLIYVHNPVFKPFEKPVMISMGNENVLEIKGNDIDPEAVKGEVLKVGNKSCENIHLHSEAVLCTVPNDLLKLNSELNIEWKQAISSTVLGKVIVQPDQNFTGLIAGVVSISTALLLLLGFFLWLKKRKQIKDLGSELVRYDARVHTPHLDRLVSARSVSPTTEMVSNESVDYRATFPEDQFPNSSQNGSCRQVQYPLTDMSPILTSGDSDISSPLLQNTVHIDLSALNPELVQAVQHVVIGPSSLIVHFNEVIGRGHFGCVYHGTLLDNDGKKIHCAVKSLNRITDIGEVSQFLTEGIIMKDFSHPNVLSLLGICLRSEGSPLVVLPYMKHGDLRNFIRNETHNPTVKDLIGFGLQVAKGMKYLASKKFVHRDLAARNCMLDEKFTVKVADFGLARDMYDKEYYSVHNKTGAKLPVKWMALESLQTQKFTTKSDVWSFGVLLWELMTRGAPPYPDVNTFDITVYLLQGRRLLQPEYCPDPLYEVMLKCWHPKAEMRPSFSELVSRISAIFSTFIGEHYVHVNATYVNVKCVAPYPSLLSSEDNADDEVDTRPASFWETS
# TRKA (NTRK1), sequence (P04629 33-796): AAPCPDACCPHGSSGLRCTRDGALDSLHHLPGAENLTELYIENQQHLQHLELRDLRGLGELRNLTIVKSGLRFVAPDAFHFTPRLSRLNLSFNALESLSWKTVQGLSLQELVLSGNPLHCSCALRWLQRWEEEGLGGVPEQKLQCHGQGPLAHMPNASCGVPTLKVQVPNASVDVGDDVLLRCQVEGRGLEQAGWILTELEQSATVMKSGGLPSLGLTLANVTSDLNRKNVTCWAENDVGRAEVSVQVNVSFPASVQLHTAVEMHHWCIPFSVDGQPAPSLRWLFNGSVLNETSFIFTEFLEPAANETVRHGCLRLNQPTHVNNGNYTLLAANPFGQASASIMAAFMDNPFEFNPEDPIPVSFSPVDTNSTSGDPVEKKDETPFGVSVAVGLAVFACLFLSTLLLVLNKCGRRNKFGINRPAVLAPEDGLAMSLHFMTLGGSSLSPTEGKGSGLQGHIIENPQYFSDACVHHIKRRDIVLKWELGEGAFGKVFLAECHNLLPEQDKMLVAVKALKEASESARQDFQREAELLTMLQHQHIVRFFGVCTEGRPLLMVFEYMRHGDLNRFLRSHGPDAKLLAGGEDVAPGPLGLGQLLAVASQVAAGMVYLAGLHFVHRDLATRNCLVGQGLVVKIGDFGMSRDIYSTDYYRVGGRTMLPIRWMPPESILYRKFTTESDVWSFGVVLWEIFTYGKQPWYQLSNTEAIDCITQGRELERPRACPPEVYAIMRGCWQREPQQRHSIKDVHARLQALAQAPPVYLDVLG
# PIM1, sequence (P11309 whole entry): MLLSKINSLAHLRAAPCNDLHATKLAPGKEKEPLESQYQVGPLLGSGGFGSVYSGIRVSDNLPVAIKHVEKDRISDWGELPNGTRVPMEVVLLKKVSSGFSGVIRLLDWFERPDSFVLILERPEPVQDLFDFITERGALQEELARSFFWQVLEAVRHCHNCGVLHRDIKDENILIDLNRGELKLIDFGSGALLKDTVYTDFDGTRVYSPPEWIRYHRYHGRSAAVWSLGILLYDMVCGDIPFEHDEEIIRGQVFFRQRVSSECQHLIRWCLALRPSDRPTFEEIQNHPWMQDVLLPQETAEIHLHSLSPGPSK
compound,measurement,setting,value
CN(c1ccc2ncc(-c3ccc4cn[nH]c4c3)n2n1)C1CCOCC1 [Compound 19],toxicity to microglia,microglia,did not cause toxicity
same,increase in the HuR N/C ratio in microglia,"[1]; 15 mg/kg i.p. at 30 min, 6, 12 and 18 hours post LPS, hippocampus at 24 hours",2 fold
same,attenuation of infiltrating monocytes,[1]; [4],1.3- to 2 fold
same,attenuation of infiltrating neutrophils,[1]; [4],2 to 3 fold
same,"gene set average value, Activation of BH3-only proteins Homo sapiens_R-HSA-114452",[2],0.75
same,"gene set average value, Cell Cycle Check points_Homo Sapiens_R-HSA-69620",[2],0.66
same,"gene set average value, Cell Cycle, Mitotic_Homo Sapiens_R-HSA-69278",[2],0.67
same,"gene set average value, Cell Cycle_Homo sapiens_R-HSA-1640170",[2],0.66
same,"gene set average value, Cell cycle_Homo Sapiens_hsa04110",[2],0.75
same,"gene set average value, Cellular Senescence_Homo sapiens_R-HSA-2559583",[2],0.76
same,"gene set average value, Cellular responses to Stress_Homo sapiens_R-HSA-2262752",[2],0.70
same,"gene set average value, Deadenylation-dependent mRNA decay_Homo sapiens_R-HSA-429914",[2],0.84
same,"gene set average value, Developmental Biology_Homo sapiens_R-HSA-1266738",[2],0.72
same,"gene set average value, Epstein-Barr virus Infection_Homo Sapiens_hsa05169",[2],0.79
same,"gene set average value, G2/M Check points_Homo sapiens_R-HSA-69481",[2],0.66
same,"gene set average value, G2/M DNA damage Checkpoint_Homo sapiens_R-HSA-69473",[2],0.67
same,"gene set average value, Gene Expression_Homo Sapiens_R-HSA-2559583",[2],0.87
same,"gene set average value, HTLV-1 infection_Homo Sapiens_hsa05186",[2],0.88
same,"gene set average value, Intrinsic Pathway for Apoptosis_Homo sapiens_R-HSA-109606",[2],0.75
same,"gene set average value, MAPK signaling Pathway_Homo Sapiens_hsa04010",[2],0.76
same,"gene set average value, Membrane Trafficking_Homo sapiens_R-HAS-199991",[2],0.61
same,"gene set average value, Mitotic G1-G1/S phases_Homo sapiens_R-HSA-453279",[2],0.63
same,"gene set average value, P53 signaling pathway_Homo Sapiens_hsa04115",[2],1.07
same,"gene set average value, RHO GTPases Activate Formins_Homo sapiens_R-HSA-5663220",[2],0.65
same,"gene set average value, RHO GTPases Effectors_Homo sapiens_R-HSA-195258",[2],0.69
same,"gene set average value, RNA degradation_Homo Sapiens_hsa03018",[2],0.94
same,"gene set average value, Regulation of TP53 Activity through Phosphorylation_Homo sapiens_R-HSA-6804756",[2],0.64
same,"gene set average value, Regulation of TP53 Activity_Homo sapiens_R-HSA-109606",[2],0.77
same,"gene set average value, Signaling by Rho GTPases_Homo sapiens_R-HSA-194315",[2],0.72
same,"gene set average value, TP53 Regulates Metabolic Genes_Homo sapiens_R-HSA-5628897",[2],0.78
same,"gene set average value, Transcriptional Regulation by TP53_Homo sapiens_R-HSA-3700989",[2],0.81
same,"gene set average value, Translocation of GLUT4 to the plasma membrane_Homo sapiens_R-HSA-1445148",[2],0.69
same,"gene set average value, Activation of BH3-only proteins Homo sapiens_R-HSA-114452",[3],1.03
same,"gene set average value, Cell Cycle Check points_Homo Sapiens_R-HSA-69620",[3],0.77
same,"gene set average value, Cell Cycle, Mitotic_Homo Sapiens_R-HSA-69278",[3],0.80
same,"gene set average value, Cell Cycle_Homo sapiens_R-HSA-1640170",[3],0.74
same,"gene set average value, Cell cycle_Homo Sapiens_hsa04110",[3],0.99
same,"gene set average value, Cellular Senescence_Homo sapiens_R-HSA-2559583",[3],0.99
same,"gene set average value, Cellular responses to Stress_Homo sapiens_R-HSA-2262752",[3],0.74
same,"gene set average value, Deadenylation-dependent mRNA decay_Homo sapiens_R-HSA-429914",[3],1.03
same,"gene set average value, Developmental Biology_Homo sapiens_R-HSA-1266738",[3],0.65
same,"gene set average value, Epstein-Barr virus Infection_Homo Sapiens_hsa05169",[3],1.0
same,"gene set average value, G2/M Check points_Homo sapiens_R-HSA-69481",[3],0.82
same,"gene set average value, G2/M DNA damage Checkpoint_Homo sapiens_R-HSA-69473",[3],0.82
same,"gene set average value, Gene Expression_Homo Sapiens_R-HSA-2559583",[3],0.95
same,"gene set average value, HTLV-1 infection_Homo Sapiens_hsa05186",[3],0.89
same,"gene set average value, Intrinsic Pathway for Apoptosis_Homo sapiens_R-HSA-109606",[3],1.03
same,"gene set average value, MAPK signaling Pathway_Homo Sapiens_hsa04010",[3],1.0
same,"gene set average value, Membrane Trafficking_Homo sapiens_R-HAS-199991",[3],0.86
same,"gene set average value, Mitotic G1-G1/S phases_Homo sapiens_R-HSA-453279",[3],1.00
same,"gene set average value, P53 signaling pathway_Homo Sapiens_hsa04115",[3],1.9
same,"gene set average value, RHO GTPases Activate Formins_Homo sapiens_R-HSA-5663220",[3],0.62
same,"gene set average value, RHO GTPases Effectors_Homo sapiens_R-HSA-195258",[3],0.70
same,"gene set average value, RNA degradation_Homo Sapiens_hsa03018",[3],1.97
same,"gene set average value, Regulation of TP53 Activity through Phosphorylation_Homo sapiens_R-HSA-6804756",[3],0.58
same,"gene set average value, Regulation of TP53 Activity_Homo sapiens_R-HSA-109606",[3],0.94
same,"gene set average value, Signaling by Rho GTPases_Homo sapiens_R-HSA-194315",[3],0.65
same,"gene set average value, TP53 Regulates Metabolic Genes_Homo sapiens_R-HSA-5628897",[3],1.03
same,"gene set average value, Transcriptional Regulation by TP53_Homo sapiens_R-HSA-3700989",[3],1.04
same,"gene set average value, Translocation of GLUT4 to the plasma membrane_Homo sapiens_R-HSA-1445148",[3],0.92
same,IC50,TRKA (NTRK1),0.117 µM
same,IC50,PIM1,0.668 µM
same,IC50,cMET,> 10 µM

# Source: patent publication US12435091B2, “RNA-binding protein multimerization inhibitors and methods of use thereof” (THE UAB RESEARCH FOUNDATION, priority 2020, dated 2025)
